Laboratory results taken from article PMC9067983, “Identification of highly selective type II kinase inhibitors with chiral peptidomimetic tails” (Journal of Enzyme Inhibition and Medicinal Chemistry, 2022).
Where a SMILES comes first, the peptide text is derived from it. [ ]: non-standard residue; d: D form. The star is where a group is joined. X1 = Cc1ccc(Nc2ncc3c(n2)N(C)C(=O)N(c2cc(C(=O)*)ccc2C)C3)cn1; Pip = O=C(O)[C@@H]1CCCCN1; Aze = O=C(O)[C@@H]1CCN1; Nva = CCC[C@H](N)C(=O)O; Ac3c = NC1(C(=O)O)CC1; Aib = CC(C)(N)C(=O)O

What was measured:
Lck = target: T1, Lck (Homo sapiens, UniProt P06239); experiment: In vitro kinase assay (IC50); assay type: biochemical
T1 construct: purchased Reaction Biology Corp
T1 sequence (P06239 whole entry): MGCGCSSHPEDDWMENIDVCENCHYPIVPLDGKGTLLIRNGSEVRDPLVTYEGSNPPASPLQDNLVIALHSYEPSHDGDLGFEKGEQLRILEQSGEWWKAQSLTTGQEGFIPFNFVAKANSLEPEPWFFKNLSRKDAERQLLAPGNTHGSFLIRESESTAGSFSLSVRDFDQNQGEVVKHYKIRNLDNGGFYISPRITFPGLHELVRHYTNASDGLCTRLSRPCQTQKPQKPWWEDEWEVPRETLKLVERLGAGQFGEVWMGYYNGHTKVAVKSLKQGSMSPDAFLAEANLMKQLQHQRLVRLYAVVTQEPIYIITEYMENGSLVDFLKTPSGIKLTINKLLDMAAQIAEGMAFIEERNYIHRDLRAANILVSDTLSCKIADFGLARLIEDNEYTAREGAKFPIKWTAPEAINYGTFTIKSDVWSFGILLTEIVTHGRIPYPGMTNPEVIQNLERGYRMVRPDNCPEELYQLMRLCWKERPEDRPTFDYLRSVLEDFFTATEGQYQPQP
Method: (§1) Full panel kinase profiling and kinase IC50 measurement were performed by using Reaction Biology Corp. (San Diego, USA).

c-Src = target: T2, c-Src (Homo sapiens, UniProt P12931); experiment: In vitro kinase assay (IC50); assay type: biochemical
T2 construct: purchased Reaction Biology Corp
T2 sequence (P12931 whole entry): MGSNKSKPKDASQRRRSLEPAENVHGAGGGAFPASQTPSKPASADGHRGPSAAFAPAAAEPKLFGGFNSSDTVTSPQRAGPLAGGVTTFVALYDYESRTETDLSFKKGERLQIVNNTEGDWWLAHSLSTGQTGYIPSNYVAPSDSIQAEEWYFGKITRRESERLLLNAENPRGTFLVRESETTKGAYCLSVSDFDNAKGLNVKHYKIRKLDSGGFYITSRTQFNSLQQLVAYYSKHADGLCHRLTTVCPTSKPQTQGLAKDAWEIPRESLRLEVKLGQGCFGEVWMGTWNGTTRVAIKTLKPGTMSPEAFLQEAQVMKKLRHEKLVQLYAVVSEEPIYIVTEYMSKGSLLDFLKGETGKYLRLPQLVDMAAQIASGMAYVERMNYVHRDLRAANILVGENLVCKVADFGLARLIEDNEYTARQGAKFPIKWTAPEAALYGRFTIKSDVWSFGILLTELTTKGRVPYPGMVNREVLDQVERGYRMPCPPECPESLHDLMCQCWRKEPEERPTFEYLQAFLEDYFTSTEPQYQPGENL
Method: as §1

| IC50 (Lck) [nM] | IC50 (c-Src) [nM] | decrease of Lck/c-Src selectivity compared to 7a (Lck) [fold] | selectivity for Lck over c-Src (Lck) [fold] | SMILES |
| --- | --- | --- | --- | --- |
| 3.57 | 27.1 | – | – | CC1=N[C@@H](Cc2ccccc2)C(=O)Nc2cc(C(=O)Nc3ccc(C)c(N4Cc5cnc(Nc6ccc(C)nc6)nc5N(C)C4=O)c3)ccc21 [11k, (S)-3-benzyl-5-methyl-N-(4-methyl-3-(1-methyl-7-((6-methylpyridin-3-yl)amino)-2-oxo-1,4-dihydropyrimido[4,5-d]pyrimidin-3(2H)-yl)phenyl)-2-oxo-2,3-dihydro-1H-benzo[e][1,4]diazepine-8-carboxamide] |
| 379 | 3970 | – | – | Cc1ccc(Nc2ncc3c(n2)N(C)C(=O)N(c2cc(C(=O)N[C@@H](C)C(=O)N4CCC[C@H]4C(=O)NC(C)(C)C(=O)N[C@H](C(=O)N(C)C)C(C)C)ccc2C)C3)cn1 [7m, (S)-N-(1-(((S)-1-(dimethylamino)-3-methyl-1-oxobutan-2-yl)amino)-2-methyl-1-oxopropan-2-yl)-1-((4-methyl-3-(1-methyl-7-((6-methylpyridin-3-yl)amino)-2-oxo-1,4-dihydropyrimido[4,5-d]pyrimidin-3(2H)-yl)benzoyl)-L-alanyl)pyrrolidine-2-carboxamide] (X1-AP[Aib]V-NMe2) |
| 70.8 | 477 | – | – | CCC[C@H](NC(=O)c1ccc(C)c(N2Cc3cnc(Nc4ccc(C)nc4)nc3N(C)C2=O)c1)C(=O)N1CCC[C@H]1C(=O)NC(C)(C)C(=O)N[C@@H](CC(C)C)C(=O)N(C)C [7t, (S)-N-(1-(((S)-1-(dimethylamino)-4-methyl-1-oxopentan-2-yl)amino)-2-methyl-1-oxopropan-2-yl)-1-((S)-2-(4-methyl-3-(1-methyl-7-((6-methylpyridin-3-yl)amino)-2-oxo-1,4-dihydropyrimido[4,5-d]pyrimidin-3(2H)-yl)benzamido)pentanoyl)pyrrolidine-2-carboxamide] (X1-[Nva]P[Aib]L-NMe2) |
| 216 | 577 | – | – | Cc1ccc(Nc2ncc3c(n2)N(C)C(=O)N(c2cc(C(=O)NCC(=O)N4CCC[C@H]4C(=O)NC(C)(C)C(=O)N[C@@H](CC(C)C)C(=O)N(C)C)ccc2C)C3)cn1 [7r, (S)-N-(1-(((S)-1-(dimethylamino)-4-methyl-1-oxopentan-2-yl)amino)-2-methyl-1-oxopropan-2-yl)-1-((4-methyl-3-(1-methyl-7-((6-methylpyridin-3-yl)amino)-2-oxo-1,4-dihydropyrimido[4,5-d]pyrimidin-3(2H)-yl)benzoyl)glycyl)pyrrolidine-2-carboxamide] (X1-GP[Aib]L-NMe2) |
| 15.4 | 174 | – | > 10 | Cc1ccc(Nc2ncc3c(n2)N(C)C(=O)N(c2cc(C(=O)N[C@@H](CC(C)C)C(=O)N4CCC[C@H]4C(=O)NC(C)(C)C(=O)N[C@@H](CC(C)C)C(=O)N(C)C)ccc2C)C3)cn1 [7q, (S)-N-(1-(((S)-1-(dimethylamino)-4-methyl-1-oxopentan-2-yl)amino)-2-methyl-1-oxopropan-2-yl)-1-((4-methyl-3-(1-methyl-7-((6-methylpyridin-3-yl)amino)-2-oxo-1,4-dihydropyrimido[4,5-d]pyrimidin-3(2H)-yl)benzoyl)-L-leucyl)pyrrolidine-2-carboxamide] (X1-LP[Aib]L-NMe2) |
| 174 | 1140 | – | – | Cc1ccc(Nc2ncc3c(n2)N(C)C(=O)N(c2cc(C(=O)N[C@H](C(=O)N4CCC[C@H]4C(=O)NC(C)(C)C(=O)NCC(=O)N(C)C)C(C)C)ccc2C)C3)cn1 [7u, (S)-N-(1-((2-(dimethylamino)-2-oxoethyl)amino)-2-methyl-1-oxopropan-2-yl)-1-((4-methyl-3-(1-methyl-7-((6-methylpyridin-3-yl)amino)-2-oxo-1,4-dihydropyrimido[4,5-d]pyrimidin-3(2H)-yl)benzoyl)-L-valyl)pyrrolidine-2-carboxamide] (X1-VP[Aib]G-NMe2) |
| 727 | 3140 | – | – | Cc1ccc(Nc2ncc3c(n2)N(C)C(=O)N(c2cc(C(=O)N[C@H](C(=O)N4CCC[C@H]4C(=O)NC(C)(C)C(=O)N[C@H](C(=O)N(C)C)C(C)C)C(C)C)ccc2C)C3)cn1 [7n, (S)-N-(1-(((S)-1-(dimethylamino)-3-methyl-1-oxobutan-2-yl)amino)-2-methyl-1-oxopropan-2-yl)-1-((4-methyl-3-(1-methyl-7-((6-methylpyridin-3-yl)amino)-2-oxo-1,4-dihydropyrimido[4,5-d]pyrimidin-3(2H)-yl)benzoyl)-L-valyl)pyrrolidine-2-carboxamide] (X1-VP[Aib]V-NMe2) |
| 155 | 1740 | – | – | Cc1ccc(Nc2ncc3c(n2)N(C)C(=O)N(c2cc(C(=O)N[C@@H](Cc4ccccc4)C(=O)N4CCC[C@H]4C(=O)NC(C)(C)C(=O)N[C@H](C(=O)N(C)C)C(C)C)ccc2C)C3)cn1 [7l, (S)-N-(1-(((S)-1-(dimethylamino)-3-methyl-1-oxobutan-2-yl)amino)-2-methyl-1-oxopropan-2-yl)-1-((4-methyl-3-(1-methyl-7-((6-methylpyridin-3-yl)amino)-2-oxo-1,4-dihydropyrimido[4,5-d]pyrimidin-3(2H)-yl)benzoyl)-L-phenylalanyl)pyrrolidine-2-carboxamide] (X1-FP[Aib]V-NMe2) |

Further lines, the compound ahead of its results:

| SMILES | IC50 (Lck) [nM] | IC50 (c-Src) [nM] | decrease of Lck/c-Src selectivity compared to 7a (Lck) [fold] | selectivity for Lck over c-Src (Lck) [fold] |
| --- | --- | --- | --- | --- |
| Cc1ccc(Nc2ncc3c(n2)N(C)C(=O)N(c2cc(NC(=O)c4ccc5c(c4)N(CC(C)C)C(=O)[C@H](CC(C)C)N=C5c4ccccc4)ccc2C)C3)cn1 [11j, (S)-1,3-diisobutyl-N-(4-methyl-3-(1-methyl-7-((6-methylpyridin-3-yl)amino)-2-oxo-1,4-dihydropyrimido[4,5-d]pyrimidin-3(2H)-yl)phenyl)-2-oxo-5-phenyl-2,3-dihydro-1H-benzo[e][1,4]diazepine-8-carboxamide] | 132 | 461 | – | – |
| Cc1ccc(Nc2ncc3c(n2)N(C)C(=O)N(c2cc(C(=O)N[C@H](C(=O)N4CCCC[C@H]4C(=O)NC(C)(C)C(=O)N[C@@H](CC(C)C)C(=O)N(C)C)C(C)C)ccc2C)C3)cn1 [7j, (S)-N-(1-(((S)-1-(dimethylamino)-4-methyl-1-oxopentan-2-yl)amino)-2-methyl-1-oxopropan-2-yl)-1-((4-methyl-3-(1-methyl-7-((6-methylpyridin-3-yl)amino)-2-oxo-1,4-dihydropyrimido[4,5-d]pyrimidin-3(2H)-yl)benzoyl)-L-valyl)piperidine-2-carboxamide] (X1-V[Pip][Aib]L-NMe2) | 18 | 586 | – | – |
| Cc1ccc(Nc2ncc3c(n2)N(C)C(=O)N(c2cc(C(=O)N[C@H](C(=O)N4CCC[C@H]4C(=O)NCC(=O)N[C@@H](CC(C)C)C(=O)N(C)C)C(C)C)ccc2C)C3)cn1 [7g, (S)-N-(2-(((S)-1-(dimethylamino)-4-methyl-1-oxopentan-2-yl)amino)-2-oxoethyl)-1-((4-methyl-3-(1-methyl-7-((6-methylpyridin-3-yl)amino)-2-oxo-1,4-dihydropyrimido[4,5-d]pyrimidin-3(2H)-yl)benzoyl)-L-valyl)pyrrolidine-2-carboxamide] (X1-VPGL-NMe2) | 40.2 | 1370 | – | – |
| Cc1ccc(Nc2ncc3c(n2)N(C)C(=O)N(c2cc(C(=O)N[C@@H](C(=O)N4CCC[C@@H]4C(=O)NC(C)(C)C(=O)N[C@H](CC(C)C)C(=O)N(C)C)C(C)C)ccc2C)C3)cn1 [7c, (R)-N-(1-(((R)-1-(dimethylamino)-4-methyl-1-oxopentan-2-yl)amino)-2-methyl-1-oxopropan-2-yl)-1-((4-methyl-3-(1-methyl-7-((6-methylpyridin-3-yl)amino)-2-oxo-1,4-dihydropyrimido[4,5-d]pyrimidin-3(2H)-yl)benzoyl)-D-valyl)pyrrolidine-2-carboxamide] (X1-[dV][dP][Aib][dL]-NMe2) | 211 | 735 | > 10 | – |
| COCCN1C(=O)[C@H](CC(C)C)N=C(c2ccccc2)c2ccc(C(=O)Nc3ccc(C)c(N4Cc5cnc(Nc6ccc(C)nc6)nc5N(C)C4=O)c3)cc21 [11n, (S)-3-isobutyl-1-(2-methoxyethyl)-N-(4-methyl-3-(1-methyl-7-((6-methylpyridin-3-yl)amino)-2-oxo-1,4-dihydropyrimido[4,5-d]pyrimidin-3(2H)-yl)phenyl)-2-oxo-5-phenyl-2,3-dihydro-1H-benzo[e][1,4]diazepine-8-carboxamide] | 16 | 48.6 | – | – |
| Cc1ccc(Nc2ncc3c(n2)N(C)C(=O)N(c2cc(C(=O)N[C@H](C(=O)N4CC[C@H]4C(=O)NC(C)(C)C(=O)N[C@@H](CC(C)C)C(=O)N(C)C)C(C)C)ccc2C)C3)cn1 [7k, (S)-N-(1-(((S)-1-(dimethylamino)-4-methyl-1-oxopentan-2-yl)amino)-2-methyl-1-oxopropan-2-yl)-1-((4-methyl-3-(1-methyl-7-((6-methylpyridin-3-yl)amino)-2-oxo-1,4-dihydropyrimido[4,5-d]pyrimidin-3(2H)-yl)benzoyl)-L-valyl)azetidine-2-carboxamide] (X1-V[Aze][Aib]L-NMe2) | 302 | 921 | > 10 | – |
| Cc1ccc(Nc2ncc3c(n2)N(C)C(=O)N(c2cc(C(=O)N[C@H](C(=O)N4CCC[C@H]4C(=O)NC4(C(=O)N[C@@H](CC(C)C)C(=O)N(C)C)CC4)C(C)C)ccc2C)C3)cn1 [7d, (S)-N-(1-(((S)-1-(dimethylamino)-4-methyl-1-oxopentan-2-yl)carbamoyl)cyclopropyl)-1-((4-methyl-3-(1-methyl-7-((6-methylpyridin-3-yl)amino)-2-oxo-1,4-dihydropyrimido[4,5-d]pyrimidin-3(2H)-yl)benzoyl)-L-valyl)pyrrolidine-2-carboxamide] (X1-VP[Ac3c]L-NMe2) | 49 | 555 | – | – |
| C=CCN1C(=O)[C@H](CC(C)C)N=C(c2ccccc2)c2ccc(C(=O)Nc3ccc(C)c(N4Cc5cnc(Nc6ccc(C)nc6)nc5N(C)C4=O)c3)cc21 [11i, (S)-1-allyl-3-isobutyl-N-(4-methyl-3-(1-methyl-7-((6-methylpyridin-3-yl)amino)-2-oxo-1,4-dihydropyrimido[4,5-d]pyrimidin-3(2H)-yl)phenyl)-2-oxo-5-phenyl-2,3-dihydro-1H-benzo[e][1,4]diazepine-8-carboxamide] | 49.3 | 222 | – | – |
